How the values were obtained:
U87 = assay: MTT cell viability assay, U87 cells; assay type: cell-based; conditions: 48 h, n = 3
Description: (§1) MGC-803, SGC-7901, U87 and SMMC-7721 cell lines were cultured in DMEM supplemented with 10% foetal bovine serum, 100 IU/mL penicillin/streptomycin. The cells were incubated in an atmosphere containing 5% CO2 at 37 °C.
(§2) MGC-803, SGC-7901, U87 and SMMC-7721 cells were plated in 96-well plate at 7000 per well. Cells were incubated with the different concentrations of the compounds for 48 h. Subsequently, MTT (0.5 mg/mL) were used to test the cell viability, then 150 μL DMSO was added to each well after cells were incubated for 4 h and the absorbance was measured at 492 nm.

SGC-7901 = assay: MTT cell viability assay, SGC-7901 cells; assay type: cell-based, human; conditions: n = 3
Description: as §1, §2

MGC-803 = assay: MTT cell viability assay, MGC-803 cells; assay type: cell-based; conditions: n = 3
Description: as §1, §2

L02 = assay: MTT cell viability assay, L02 cells; assay type: cell-based; conditions: Homo sapiens, n = 3
[1] = Metabolic stability assay in human liver microsomes; assay type: in vitro ADME
Description: To initially evaluate the stability of compound 12, we then tested the liver microsome stability of this compound. The Mean % Parent Remaining of compound 12 in metabolic stability test were 100, 95, 85, 80, and 70 at 0, 15, 30, 45, and 60 min, respectively.

SGC-7901 cells [2] = assay: Annexin V-FITC/PI apoptosis assay (flow cytometry); assay type: cell-based, human; conditions: 48 h; for total apoptosis: control 4.34%
Description: After the indicated treatments for 48 h, cells were collected, washed three times with cold PBS, centrifuged and resuspended with 400 μL AnnexinV binding buffer per tube. Then the cells were stained with 5μLAnnexinV-FITC and incubated in the dark for 10 min on ice. Finally, 10 μL PI staining solution was added, and cells were detected by the flow cytometry after incubated in the dark for 5 min. Flowjo 7.6.1 software was used to analyse the cell apoptosis.
(§3) Apoptosis is one of the main methods that result in cell death. In this study, Annexin V-FITC/PI kit was used to evaluate the cell apoptosis. […] To further, investigate whether the cell apoptosis induced by title compound, Western blot analysis was used to measure the effect of the compound on apoptosis of SGC-7901 cell. As reported that apoptosis pathway could be regulated by the activation of PARP and Bcl2 family proteins[40]^,[41].

SGC-7901 cells [3] = assay: Colony formation assay; assay type: cell-based, human; conditions: SGC-7901, 2, 4, 8 μM, 12 d
Description: SGC-7901 cells (8000/well) were seeded in 6-well plate, and treated with indicated concentrations of compound 12 (2 μM, 4 μM, 8 μM) for 12 d. The medium was removed and methanol (500 μL/well) was added to fix at the cells for 3 min. Then cells were stained with giemsa working fluid for 15 min and washed with PBS. The number of colonies was counted.

[4] = tested on: Bax, Bcl-2, cleaved PARP in SGC-7901 cells; assay: Western blot of apoptosis-related proteins; assay type: cell-based, human
Description: (§4) RIPA lysis buffer was used to dissociate the treated cells. Cells were lysed and the supernatant was harvested after centrifuged for 30 min. The cell proteins were separated using Sodium dodecyl sulphate-polyacrylamide gel electrophoresis, and then they were transferred to the PVDF membranes. The membranes were blocked with skimmed milk solution (5%) for 2 h, then incubated with primary antibodies (1:1000, cst) for 20 h at 4 °C. The membranes were detected by chemiluminescence reagent after probed with the secondary antibody for 1 h.
as §3

[5] = tested on: LC3-II, P62, Beclin1 in SGC-7901 cells; assay: Western blot of autophagy-related proteins; assay type: cell-based, human; conditions: SGC-7901, Western blot
Description: as §4
Autophagy is a process of lysosomal degradation that can deliver the cytoplasmic cargo to the lysosome. To assess whether compound 12 could promote autophagy on SGC-7901 cells, the expressions of autophagy-related proteins were examined. Autophagy will be switched on when LC3-I was converted into LC3-II, and the level of LC3-II involves in the formation of autophagosome. Meanwhile p62 is a marker of the degradative lysosome[43]^,[44]. As shown in Figure 6(A), compound can decrease the level of P62 and increase the expressions of LC3II and Beclin1.

[6] = tested on: GFP-LC3 in SGC-7901 cells; assay: GFP-LC3 transfection, puncta by confocal microscopy; assay type: cell-based, human
Description: A plasmid GFP-tagged LC3 reporter gene (0.8 μg/500 μL) was transfected into SGC-7901 cells by Lipofectamine 2000, then cells were incubated for 24 h. After different treatments for 24 h, cells were fixed with 4% paraformaldehyde for 20 min, and washed three times with PBS. Finally, Laser confocal dishes were analysed using confocal microscope.
Another typical feature of autophagy is the accumulation of the acidic autophagic vacuoles (AVOs)[45]^,[46]. To verify the development of AVOs, Acridine Orange (AO) staining was used to examine whether the acidic vesicular organelles in SGC-7901 cells were increased. AO produces red fluorescence when it accumulates in acidic regions such as autophagy lysosomes and lysosomes and produces bright green fluorescence in the cytoplasm and the nucleus. […] GFP-LC3 indicating technique was also used to detect the autophagy at the same time. When autophagy is formed, multiple bright green fluorescent spots will form as the GFP-LC3 fusion protein can translate to autophagosome membrane. From Figure 6(C), compared to the blank control group, GFP-LC3 puncta were increased after cells treated with compound 12 (4 μM) meanwhile decreased after treated with compound 12 (4 μM) and 3-MA (500 μM).

[7] = tested on: PI3K/AKT/MTOR signalling pathway; assay: Western blot of PI3K/AKT/MTOR pathway; assay type: cell-based, human
Description: as §4
As a therapeutic target for cancer, the PI3K/AKT/MTOR signalling pathway participates in regulating autophagy. Consequently, Western blot experiment was used to explore the impact of compound 12 on the level of phospho-PI3K, phospho-AKT and phospho-mTOR. […] 3-MA (3-methyladenine) is also a PI3K inhibitor[57], so compound 12 (4 μM) with 3-MA (500 μM) were used to treated the cells.

[8] = SGC-7901, increasing concentration (1, 2, 4 μM)
[9] = compound 12 4 μM with 3-MA 500 μM

CC(C)=CCC(OC(=O)CCC(=O)Nc1ccc(Oc2ccccc2)cc1)C1=CC(=O)c2c(O)ccc(O)c2C1=O (stereo not shown) [Compound 12, 1-(5,8-dihydroxy-1,4-dioxo-1,4-dihydronaphthalen-2-yl)-4-methylpent-3-en-1-yl-4-oxo-4-((4-phenoxyphenyl)amino)butanoate]
IC50 (U87): 3.8 ± 0.2 µM
IC50 (U87; Homo sapiens, U-87 MG): 3.85 µM
IC50 (SGC-7901; 48 h): 4.1 ± 2.6 µM
IC50 (SGC-7901; Homo sapiens, SGC-7901, 48 h): 4.09 µM
IC50 (MGC-803; 48 h): 4.1 ± 0.6 µM
IC50 (MGC-803; Homo sapiens, MGC-803, 48 h): 4.07 µM
IC50 (L02): > 50 µM
Mean % Parent Remaining ([1]; 0 min): 100%
Mean % Parent Remaining ([1]; 15 min): 95%
Mean % Parent Remaining ([1]; 30 min): 85%
Mean % Parent Remaining ([1]; 45 min): 80%
Mean % Parent Remaining ([1]; 60 min): 70%
microsomal CLint ([1]; human, read-out: calculated clearance rate): > 110 µL/min/mg
half-life ([1]; human, read-out: half-life (t1/2)): > 1 h
total apoptosis (SGC-7901 cells [2]; SGC-7901, 1 μM): 6.45%
total apoptosis (SGC-7901 cells [2]; SGC-7901, 2 μM): 9.72%
total apoptosis (SGC-7901 cells [2]; SGC-7901, 4 μM): 19.9%
apoptosis rate in the presence of 3-MA compared with compound 12 alone (SGC-7901 cells [2]; compound 12 4 μM, 3-MA 500 μM): decreased
number of colonies vs control (SGC-7901 cells [3]): decreased
level of Bax [4, 8]: up-regulated
level of Bcl2 [4, 8]: down-regulated
level of cleaved PARP [4, 8]: up-regulated
up-regulation of Bax and cl-PARP and down-regulation of Bcl-2 in the group with 3-MA ([4]; compound 12 with 3-MA 500 μM, 48 h): inhibited
expression of Beclin1 [5]: increase
expression of LC3II [5]: increase
level of P62 [5]: decrease
GFP-LC3 puncta vs blank control ([6]; SGC-7901, compound 12 4 μM): increased
GFP-LC3 puncta ([6]; SGC-7901, compound 12 4 μM and 3-MA 500 μM): decreased
expression of p-AKT ([7]; 1, 2, 4 μM, 48 h): decreased in a dose-dependent manner
expression of p-MTOR ([7]; 1, 2, 4 μM, 48 h): decreased in a dose-dependent manner
expression of p-PI3K ([7]; 1, 2, 4 μM, 48 h): decreased in a dose-dependent manner
ratio of p-AKT/AKT compared with compound 12 alone [7, 9]: increased
ratio of p-MTOR/MTOR compared with compound 12 alone [7, 9]: increased
ratio of p-PI3K/PI3K compared with compound 12 alone [7, 9]: increased

From article PMC7144209, “Design, synthesis and anticancer activity of naphthoquinone derivatives” (Journal of Enzyme Inhibition and Medicinal Chemistry, 2020)
